One data set deals with MC38 cells. The data set can be described thus: MTT cell proliferation assay, MC38 cells. It counts as cell-based, mouse. To be noted: 24 h, 0.25% (v/v) serum, 0.001 to 1000 nM, three independent experiments with four replicates. How it is done: Effect of test compounds on proliferation was assessed with 3-(4,5-dimethylthiazol-2-yl)-2,5-diphenyl tetrazolium bromide (MTT) assays, essentially as described previously. In brief, MC38 cells were plated in 96-well plates (5,000 cells per well) in growth medium. […] Data for relative cell numbers from the three repeated experiments, each with four replicate samples per condition, were then used to fit dose-response curves using GraphPad Prism version 6.0 (GraphPad Software Inc., La Jolla, CA, USA). Cell proliferation experiments were done with MCF-7 cells as described for MC38 cells, except that 20,000 cells were plated per well. See Materials S1 and Figure S1 for detailed supplementary information regarding cell proliferation experiments.
In initial tests the association between number of cells and absorbance at 570 nm measured in an MTT assay was examined after incubation of MC38 cells with MTT for 3 h, 3 h after plating different number of cells per well, i.e., the total incubation period was 6 h. As expected there was a highly linear relationship between absolute number of cells and the measured absorbance (Figure S1). […] After incubation for 1 day cells were rinsed in PBS (room temperature) and then starvation medium was added. […] Control samples were treated with starvation medium only. After treatment for 21 h, 10 µl stock solution of MTT dissolved in PBS (5.0 mg/ml) was added to each well, and incubation was continued for 3 h so treatment with test compounds in total lasted 24 h. At the end of the treatment period medium with test compounds was removed and formazan crystals were suspended by adding 100 µl 0.04 M HCl dissolved in isopropanol to each well and absorbance was thereafter read at 570 nm using a Emax PC plate reader (Molecular Devices LLC, Sunnyvale, CA, USA). Each treatment was done with four replicate samples and three independent experiments were performed. In each experiment the absorbance was normalized to the mean absorbance in the untreated control samples. […]
(Tetrazolium assays rely on reduction of a dye to a coloured formazan, in cell work by metabolically active cells.)

Another data set relates to MC38 cell allografts. The data set can be described thus: Growth of MC38 cell tumor allografts in mice with diet-induced obesity. It counts as in vivo, mouse. As to conditions: 600 nmol/kg sc twice daily; for Tumor end volume, mean / Tumor end volume, fold change relative to vehicle: day 14; for AUC tumor growth, mean / AUC tumor growth, fold change relative to vehicle: day 0 to 14. How it is done:
We focused on different endpoints in these animal experiments and monitored tumor growth in all experiments, see Table 1. The animal experiments were performed as described recently. […] Animal care and treatments were conducted in accordance with established guidelines and protocols approved by the Lady Davis Institute (protocol # 5951) and McGill University's Animal Ethics Committee. Mice were housed one mouse per cage with ad libitum access to tap water and high- or low fat diet, respectively, throughout the studies. The temperature in the animal rooms was maintained at 20-25°C with a light/dark cycle of 14/10 hours. Mice were acclimatized for 7-10 days before experimental procedures were initiated. At experimental day 0, 2.0×10^5 (experiment A) or 5.0×10^5 (all other experiments) MC38 cells, suspended in 100 μl phosphate-buffered saline (PBS), were injected subcutaneously (sc) in the right flank of the mice. […] The size of the tumor allografts was measured three times per week and the volume calculated using the following formula: length × width^2 × 0.52. Based on the tumor volume data for each mouse, we calculated the area under the tumor growth curves (tumor growth AUC). At termination of the experiments, mice were anesthetized with isoflurane. Blood was collected by cardiac puncture and immediately after euthanasia by cervical dislocation, samples of the liver, colon, gastrocnemius muscle and the MC38 cell tumor allografts were dissected out and snap-frozen in liquid nitrogen for later preparation of tissue lysate. The effect of treatment on tumor growth in each of the five animal experiments were analysed in a one-way ANOVA followed by pairwise comparison of each treatment with vehicle using multiple t-tests with Dunnetts correction for each of the two tumor growth endpoints; tumor end volume and area under the tumor growth curves (tumor growth AUC). The results of this analysis for each experiment, i.e., mean values for each treatment, 95% confidence intervals and the fold change of each treatment relative to vehicle, are shown in Table 3. To examine treatment-related effects on tumor growth across all five animal experiments, we for each endpoint (tumor end volume and tumor growth AUC) pooled all data in one dataset and analysed them in a mixed linear model with treatment as a fixed explanatory variable and experiment as a random effect. No significant interaction between treatment and experiment was found for the any of the two outcomes (tumor end volume and tumor growth AUC). To further explore the differences between treatments, pairwise comparisons of each type of treatment were done using multiple t-test with Bonferonni correction. No outliers were observed among the 131 observations of tumor end volume, whereas one outlier was identified among the 131 observations of tumor growth AUC.

Data set [1] in a line: Plasma concentrations (pharmacokinetics) after sc injection in DIO-mice. It counts as in vivo, mouse. How it is done: The animal experiments were performed as described recently. […] Animal care and treatments were conducted in accordance with established guidelines and protocols approved by the Lady Davis Institute (protocol # 5951) and McGill University's Animal Ethics Committee. Mice were housed one mouse per cage with ad libitum access to tap water and high- or low fat diet, respectively, throughout the studies. […] The size of the tumor allografts was measured three times per week and the volume calculated using the following formula: length × width^2 × 0.52. Based on the tumor volume data for each mouse, we calculated the area under the tumor growth curves (tumor growth AUC). At termination of the experiments, mice were anesthetized with isoflurane. Blood was collected by cardiac puncture and immediately after euthanasia by cervical dislocation, samples of the liver, colon, gastrocnemius muscle and the MC38 cell tumor allografts were dissected out and snap-frozen in liquid nitrogen for later preparation of tissue lysate. Before experiments were initiated, the systemic levels of mouse insulin were measured using a Rat/Mouse Insulin ELISA kit (Millipore Corp., Bilerica, MA, USA), according to manufacturer's instructions. […] Mouse C-peptide was assayed with Rat/Mouse C-peptide 2 ELISA kit (Millipore), according to manufacturer's instructions. […] At termination of experiments whole blood was collected in EDTA-coated tubes (BD Biosciences) by cardiac puncture. […] Mouse C-peptide was assayed with Rat/Mouse C-peptide 2 ELISA kit (Millipore) according to manufacturer's instructions. […] The lower detection limit of the assay was 2 pM. […] Plate wells were coated with a mouse monoclonal anti-insulin antibody OXI005 (Novo Nordisk A/S) coupled to acceptor beads. […] Ten μl of this dilution were added to the wells. […] The lower detection limit of the assay was 233 pM.

Setting [2] is: all experiments (A–E) pooled, mixed linear model, DIO-mice.
[3] abbreviates: all experiments (A–E) pooled, mixed linear model, one outlier excluded, DIO-mice.
Where [4] appears, read: experiment C, n = 6, 5.0×10^5 MC38 cells sc, DIO-mice.
Setting [5] is: experiment D, n = 8–10, 5.0×10^5 MC38 cells sc, DIO-mice.
Setting [6] is: experiment A, n = 6, 2.0×10^5 MC38 cells sc, DIO-mice.
[7] abbreviates: experiment A, n = 6, 2.0×10^5 MC38 cells sc, male C57BL/6 DIO-mice.
Where [8] appears, read: experiment B, n = 6, 5.0×10^5 MC38 cells sc, DIO-mice.
The mark [9] stands for this setting: experiment E, n = 10, 5.0×10^5 MC38 cells sc, DIO-mice.

The values that follow come from PMC3832545 (PLoS ONE, 2013).

Marks after values point to notes of the source that are not given here.

Regarding “IGF-1: recombinant human IGF-1 (Increlex, IPSEN Pharma GmbH)”, in the data set on MC38 cells, the “Ranking according to mitogenic potency (MTT assay)” value (“Ranking according” for short) is “X10≥IGF-1>HI”. For the same substance, the “Tumor end volume, mean” value was 686.3 mm^3 with MC38 cell allografts (setting [2]), 724.6 mm^3 in the data set on MC38 cell allografts (setting [4]) and 616.0 mm^3 with MC38 cell allografts (setting [5]). The “AUC tumor growth, mean” value in the data set with MC38 cell allografts (setting [3]) is recorded as 2499.8 day × mm^3; in the data set with MC38 cell allografts (setting [4]), 2596.8 day × mm^3; in the data set with MC38 cell allografts (setting [5]), 2207.1 day × mm^3. Also, in data set [1] (mouse, in vivo, sc), the “Plasma elimination half-life (t½)” value was “approximately 70 min”.
On to human insulin [HI], for which the “Ranking according” value in the data set on MC38 cells is reported as “X10≥IGF-1>HI”. The “Tumor end volume, mean” value is 409.5 mm^3 in the data set with MC38 cell allografts (setting [2]); 439.3 mm^3 with MC38 cell allografts (setting [7]); 434.3 mm^3 in the data set with MC38 cell allografts (setting [8]); 374.5 mm^3 in the data set with MC38 cell allografts (setting [4]); 397.7 mm^3 with MC38 cell allografts (setting [5]); 365.6 mm^3 with MC38 cell allografts (setting [9]). For the same substance, the “AUC tumor growth, mean” value was 1542.1 day × mm^3 in the data set with MC38 cell allografts (setting [3]); 1539.6 day × mm^3 with MC38 cell allografts (setting [6]); 1725.4 day × mm^3 with MC38 cell allografts (setting [8]); 1309.5 day × mm^3 in the data set with MC38 cell allografts (setting [4]); 1483.0 day × mm^3 in the data set on MC38 cell allografts (setting [5]); 1421.9 day × mm^3 in the data set with MC38 cell allografts (setting [9]). Further, the “Plasma elimination half-life (t½)” value in data set [1] (DIO-mice, 600 nmol/kg sc, estimated from plasma concentrations […] min, 1 h and 6 h after injection) is given as “approximately 30 min”. Moreover, the “Cmax (plasma)” value in data set [1] (DIO-mice, 600 nmol/kg sc, plasma, LOCI / wash-LOCI / ELISA) is “approximately 1000 nM”.
As for insulin analog B10Asp [X10], the “Ranking according” value with MC38 cells is “X10≥IGF-1>HI”. In addition, the “Tumor end volume, fold change relative to vehicle” value in the data set with MC38 cell allografts (setting [2]) is 1.5 ^* fold; in the data set with MC38 cell allografts (setting [6]), 1.0 fold; with MC38 cell allografts (setting [8]), 1.7 fold; in the data set on MC38 cell allografts (setting [4]) it was 2.0 ^* fold; with MC38 cell allografts (setting [5]), 1.9 fold; in the data set with MC38 cell allografts (setting [9]) it was 1.3 fold. Also, the “Tumor end volume, mean” value with MC38 cell allografts (setting [2]) was 500.5 mm^3; in the data set with MC38 cell allografts (setting [7]) it was 500.7 mm^3; with MC38 cell allografts (setting [8]), 558.4 mm^3; with MC38 cell allografts (setting [4]), 646.8 mm^3; with MC38 cell allografts (setting [5]), 345.8 mm^3; in the data set with MC38 cell allografts (setting [9]), 427.0 mm^3. Besides, the “AUC tumor growth, fold change relative to vehicle” value in the data set on MC38 cell allografts (setting [3]) is given as 1.5 ^* fold; with MC38 cell allografts (setting [6]), 0.9 fold; in the data set with MC38 cell allografts (setting [8]), 1.8 fold; in the data set on MC38 cell allografts (setting [4]), 1.8 ^* fold; with MC38 cell allografts (setting [5]) it was 1.6 fold; in the data set on MC38 cell allografts (setting [9]), 1.4 fold. In addition, the “AUC tumor growth, mean” value with MC38 cell allografts (setting [3]) was 1851.9 day × mm^3; in the data set on MC38 cell allografts (setting [6]), 1880.9 day × mm^3; with MC38 cell allografts (setting [8]), 2167.5 day × mm^3; with MC38 cell allografts (setting [4]), 2060.9 day × mm^3; in the data set on MC38 cell allografts (setting [5]) it was 1394.4 day × mm^3; in the data set with MC38 cell allografts (setting [9]) it was 1836.1 day × mm^3. Moreover, the “Cmax relative to plasma concentrations of endogenous mouse insulin in hyperinsulinemic DIO-mice” value in data set [1] (mouse, in vivo, sc) is “approximately 1000 fold”. Besides, the “Plasma elimination half-life (t½)” value in data set [1] (mouse, in vivo, sc) is recorded as “approximately 30 min”. Besides, the “Time of maximal plasma concentration” value in data set [1] (mouse, in vivo, sc) came to 15 min.
